Measurements reported in patent publication US6593342B1, “Pharmaceutical compositions comprising 2-quinolones” (Laboratoire L. Lafon, priority 1998, dated 2003).

Columns and labels:
[1] = system: hormone-sensitive mouse mammary adenocarcinoma MXT (HS-MXT); test: In vivo antitumor activity, mouse mammary adenocarcinoma HS-MXT
Description: (§1) 4.—In Vivo Antitumor Activity in Combination With a Cytotoxic Agent
(§2) The tests were carried out on models of:
hormone-sensitive mouse mammary adenocarcinoma MXT (HS-MXT),
(§3) in the presence or absence of cytotoxic agents such as cyclophosphamide, etoposide, doxorubicin or vincristine.
(§4) When the MTD value of a product was determined, its in vivo antitumor activity was characterized at doses of MTD/2, MTD/4 and MTD/8 on the model of mouse mammary adenocarcinoma HS-MXT and on the model of lymphoma P 388.
(§5) In all the examples presented below, irrespective of the model (mammary adenocarcinoma HS-MXT or lymphoma P 388), the control condition is represented by a batch of 9 mice to which is administered for 5 consecutive weeks and at a rate of 5 administrations (Monday, Tuesday, Wednesday, Thursday and Friday) per week a volume of 0.2 ml of physiological saline containing the solvent used to dissolve the various compounds of formulae (I) and (Ia) used.
The following parameters were determined in these tests:
(§6) i)—The survival rate of the mice
(§7) This survival rate was calculated in the form of a ratio T/C:
(§8) This ratio represents the average survival time of the median mouse from the batch of treated mice relative to the average survival time of the median mouse from the batch of control mice. Thus, a molecule induces a significant (P<0.05) increase in the survival of the animals when the index T/C exceeds 130%. Conversely, it has a toxic effect when this value of T/C is less than 70%.
ii)—The tumor growth [lacuna] by measuring the area of the grafted HS-MXT or P 388 tumors twice a week (Monday and Friday). This area is calculated by multiplying the values of the largest two perpendicular axes of the tumor. The value of these axes is measured using a sliding caliper.
The model of hormone-sensitive MXT (HS-MXT) mouse mammary adenocarcinoma grafted onto 4- to 6-week-old B6D2F1/JIco mice is derived from the milk ducts of the mammary gland (Watson C. et al. Cancer Res. 1977; 37: 3344-48).
Compound 1 is administered alone. The first injection of the product is carried out on the seventh day post-grafting (D7) for four consecutive weeks at a rate of 5 injections per week (Monday, Tuesday, Wednesday, Thursday and Friday) and at a dose of 20 mg/kg.
Cyclophosphamide (CPA) is administered alone. The first injection of the product is carried out on the fourteenth day post-grafting (D14) for three consecutive weeks at a rate of 3 injections per week (Monday, Wednesday and Friday) and at a dose of 10 mg/kg.
Compound 1 is co-administered with cyclophosphamide. In this case, the first injection of compound 1 is carried out on the seventh day post-grafting (D7) for four consecutive weeks at a rate of 5 injections per week (Monday, Tuesday, Wednesday, Thursday and Friday) at a dose of 20 mg/kg, and the first injection of cyclophosphamide is carried out on the fourteenth day post-grafting (D14) for three consecutive weeks at a rate of 3 injections per week (Monday, Wednesday and Friday) at a dose of 10 mg/kg.
Etoposide (ETO) is administered alone. The first injection of the product is carried out on the fourteenth day post-grafting (D14) for three consecutive weeks at a rate of 3 injections per week (Monday, Wednesday and Friday) and at a dose of 10 mg/kg.
Doxorubicin (DOX) is administered alone. The first injection of the product is carried out on the fourteenth day post-grafting (D14) for three consecutive weeks at a rate of 3 injections per week (Monday, Wednesday and Friday) and at a dose of 5 mg/kg.
Compound 1 is co-administered with etoposide.

lymphoma P 388 = test: In vivo antitumor activity, lymphoma P 388; design: species or system mouse; details: Table IX; subcutaneous P 388 in CDF1 mice; compound 1 or 20 40 mg/kg 5/week from D5, 5 weeks; VCR 0.63 mg/kg 3/week from D5, 3 weeks
Description: as §1, §2, §3, §4, §5, §6, §7, §8
4- to 6-week-old CDF1 mice are grafted with a piece of P 388 tumor (from a tumor bank maintained in the laboratory) subcutaneously into the right flank on day D0. In order to be under conditions close to clinical reality, we waited until the 5th day post-grafting (D5) before starting the treatment. The reason for this was that, after this period of time, the subcutaneous P 388 tumors are palpable.
Compound 1 is administered alone. The first injection of the product is carried out on the 5th day post-grafting (D5) at a rate of 5 injections per week (Monday, Tuesday, Wednesday, Thursday and Friday) for five consecutive weeks-and at a dose of 40 mg/kg.
Compound 20 is administered alone. […]

SMILES	T/C (survival) ([1]; Table IV, HS-MXT in B6D2F1/JIco mice, compound 1 20 mg/kg 5 injections/week from D7, 4 weeks, CPA 10 mg/kg 3 injections/week from D14, 3 weeks) [%]	T/C (survival) ([1]; Table V, HS-MXT in B6D2F1/JIco mice, compound 1 20 mg/kg 5/week from D7, 4 weeks, ETO 10 mg/kg or DOX 5 mg/kg 3/week from D14, 3 weeks) [%]	Tumor area, reduction (−) or increase (+) compared with control ([1]; Table VI, HS-MXT tumors, 31st day after graft, 19 administrations of compound 1 (20 mg/kg), 8 of cyclophosphamide (10 mg/kg)) [%]	T/C (survival) (lymphoma P 388) [%]	T/C (survival) ([1]; Table VII, HS-MXT, compound 21 40 mg/kg 5/week from D7, 5 weeks, ETO 10 mg/kg 3/week from D7, 3 weeks) [%]
COc1ccc(-c2cc3c(OC)cc(OC)cc3[nH]c2=O)cc1 [CRL8246, 5,7-Dimethoxy-3-(4-methoxyphenyl)-1,2-dihydro-2-quinolinone]	100	95	−19.5	120	
COc1ccc(-c2cc3c(OC)cc(OC)cc3n(CCC#N)c2=O)cc1 [CRL8247, 3-[5,7-Dimethoxy-3-(4-methoxyphenyl)-2-oxo-1,2-dihydro-1-quinolinyl]propanenitrile]				125	
COc1ccc(-c2cc3c(OC)cc(OC)cc3n(CCc3nnn[nH]3)c2=O)cc1 [CRL8256, 1-[2-(1H-1,2,3,4-Tetrazol-5-yl)ethyl]-5,7-dimethoxy-3-(4-methoxyphenyl)-1,2-dihydro-2-quinolinone]					110
